Measurements from patent US6107489A, “Extended lifetimes in vivo renin inhibitors” (ConjuChem, Inc., priority 1999, dated 2000).
Like-named read-outs stand apart in the source and are kept apart here.

Legend:
[1] = tested on: renin; assay type: in vivo, rabbit; conditions: for Corrected % Inhibition: normalized for dilution
Method: Materials and Methods: The following procedures were done under sterile conditions. Rabbit plasma was obtained from freshly drawn heparinized blood. One 8 mL aliquot of plasma was incubated with 5 micromoles of YS-004-69 (15) (the NHS ester; "NHS-RI") for 60 minutes at room temperature. Another equal aliquot was similarly incubated with 5 micromoles of YS-004-65 (free acid; "Free RI"). The reaction mixtures were stored at 4° C. overnight. Aliquots of these samples were saved for analysis of total renin inhibitor content by a standard renin radioimmunoassay (RIA). After warming to 37° C., the plasma samples were injected into two autologous rabbits. The rabbits were then bled at defined intervals. The blood was centrifuged for 5 minutes at 2500 rpm and then aliquots of the plasma were analyzed by RIA. Results: Plasma proteins derivatized with the NHS ester of the renin inhibitor did indeed maintain the inhibitor in a conformation which remained bioavailable and inhibitory after an extended period of circulation in the blood. […] Again, the amount of inhibitor detectable has been normalized for the effect of dilution of the plasma by the volume of blood in circulation. "ND" means this measurement was not determined.

[2] = molecular target: T1, renin (Homo sapiens, UniProt P00797); assay: renin inhibition IC50; assay type: biochemical
T1 sequence (P00797 67-406): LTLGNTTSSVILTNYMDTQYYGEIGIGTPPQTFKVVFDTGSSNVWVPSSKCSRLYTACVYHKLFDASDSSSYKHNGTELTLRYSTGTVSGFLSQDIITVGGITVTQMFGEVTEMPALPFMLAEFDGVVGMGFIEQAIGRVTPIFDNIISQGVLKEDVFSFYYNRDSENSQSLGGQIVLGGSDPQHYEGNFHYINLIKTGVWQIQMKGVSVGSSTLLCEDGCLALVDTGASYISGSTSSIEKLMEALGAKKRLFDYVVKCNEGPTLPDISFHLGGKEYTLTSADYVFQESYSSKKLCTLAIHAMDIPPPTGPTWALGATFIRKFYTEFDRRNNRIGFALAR

Compound | Crude % Inhibition ([1]; 10 min after injection) [%] | Corrected % Inhibition ([1]; 10 min after injection) [%] | Crude % Inhibition ([1]; 30 min after injection) [%] | Corrected % Inhibition ([1]; 30 min after injection) [%] | Crude % Inhibition ([1]; 1 hour after injection) [%] | Corrected % Inhibition ([1]; 1 hour after injection) [%] | Crude % Inhibition ([1]; 4 hours after injection) [%] | Corrected % Inhibition ([1]; 4 hours after injection) [%] | Crude % Inhibition ([1]; 6 hours after injection) [%] | Corrected % Inhibition ([1]; 6 hours after injection) [%] | Crude % Inhibition ([1]; 8 hours after injection) [%] | Corrected % Inhibition ([1]; 8 hours after injection) [%] | Crude % Inhibition ([1]; 1 day after injection) [%] | Corrected % Inhibition ([1]; 1 day after injection) [%] | Crude % Inhibition ([1]; 2 days after injection) [%] | Corrected % Inhibition ([1]; 2 days after injection) [%] | Crude % Inhibition ([1]; 3 days after injection) [%] | Corrected % Inhibition ([1]; 3 days after injection) [%] | Corrected % Inhibition ([1]; 6 days after injection) [%] | Crude % Inhibition ([1]; 10 days after injection) [%] | further results
CC[C@H](C)[C@H](NC(=O)C[C@H](O)[C@H](CC1CCCCC1)NC(=O)[C@H](Cc1c[nH]cn1)NC(=O)[C@H](Cc1ccccc1)NC(=O)OC(C)(C)C)C(=O)NCCCCCC(=O)O [YS-004-65, Boc-Phe-His-ACHPA-IIe-6-AC-OH] | 89.40 | 100.00 | 20.60 | 23.04 | -2.80 | -3.13 | -5.20 | -5.82 | -0.40 | -0.45 | -2.90 | -3.24 | -5.20 | -5.82 | -3.20 | -3.58 | 1.40 | 1.57 | 0.00 | -6.60 | Corrected % Inhibition ([1]; 10 days after injection): -7.38%; level of renin inhibitor / inhibition in plasma over time ([1]; rabbit, in vivo): not detectable after one hour; IC50 [2]: 50 nM
CC[C@H](C)CNC(=O)C[C@H](O)[C@H](CC1CCCCC1)NC(=O)[C@H](Cc1c[nH]cn1)NC(=O)[C@H](Cc1ccccc1)NC(=O)OC(C)(C)C [parent renin inhibitor, reference compound] | – | – | – | – | – | – | – | – | – | – | – | – | – | – | – | – | – | – | – | – | IC50 [2]: 4 to 19 nM
Boc-Phe-His-ACHPA-IIe-6-AC-NHS [YS-004-69] | 97.70 | 100.00 | 87.40 | 89.46 | 85.90 | 87.92 | 87.40 | 99.69 | 88.20 | 100.51 | 70.50 | 72.16 | 75.10 | 76.87 | 68.10 | 69.70 | 75.80 | 77.38 | 56.60 | 41.20 | Crude % Inhibition ([1]; 6 days after injection): 55.30%; Corrected % Inhibition ([1]; 10 days after injection): 42.17%
